The text below walks through data of ChEMBL document CHEMBL4177587, “SIRT6 inhibitors with salicylate-like structure show immunosuppressive and chemosensitizing effects” (Bioorg Med Chem, 2017).

SMILES strings stand for the structures. ≈ marks a conversion by molar mass, not a printed value. Calls of active or inactive are those of the source. No cut-off for these calls is given here. Where only a bound is given, the exact number is not on record here.

For data set [1], the target named is T1, NAD-dependent protein deacylase sirtuin-6 (Homo sapiens, UniProt Q8N6T7). The data set is described as follows: Inhibition of human recombinant SIRT6 assessed as reduction in NAD+-dependent deacetylase activity at 200 uM using Arg-His-Lys-Lys(epsilon-acetyl)-AMC substrate and NAD+ by fluorescence based assay.
Data set [2] is described as follows: Fraction unbound in human plasma at 10 ug/ml by rapid equilibrium dialysis. It is filed as ADME, cell-free.
Data set [3] has as its target T1, NAD-dependent protein deacylase sirtuin-6. Briefly: Inhibition of human recombinant SIRT6 assessed as reduction in NAD+-dependent deacetylase activity using Arg-His-Lys-Lys(epsilon-acetyl)-AMC substrate and NAD+ by fluorescence based assay.
Data set [4] is described as follows: Intrinsic aqueous solubility in PBS at pH 7.4. The class given is physicochemical.
The target in data set [5] is T2, NAD-dependent protein deacetylase sirtuin-1 (Homo sapiens, UniProt Q96EB6).
T2 sequence (Q96EB6 whole entry): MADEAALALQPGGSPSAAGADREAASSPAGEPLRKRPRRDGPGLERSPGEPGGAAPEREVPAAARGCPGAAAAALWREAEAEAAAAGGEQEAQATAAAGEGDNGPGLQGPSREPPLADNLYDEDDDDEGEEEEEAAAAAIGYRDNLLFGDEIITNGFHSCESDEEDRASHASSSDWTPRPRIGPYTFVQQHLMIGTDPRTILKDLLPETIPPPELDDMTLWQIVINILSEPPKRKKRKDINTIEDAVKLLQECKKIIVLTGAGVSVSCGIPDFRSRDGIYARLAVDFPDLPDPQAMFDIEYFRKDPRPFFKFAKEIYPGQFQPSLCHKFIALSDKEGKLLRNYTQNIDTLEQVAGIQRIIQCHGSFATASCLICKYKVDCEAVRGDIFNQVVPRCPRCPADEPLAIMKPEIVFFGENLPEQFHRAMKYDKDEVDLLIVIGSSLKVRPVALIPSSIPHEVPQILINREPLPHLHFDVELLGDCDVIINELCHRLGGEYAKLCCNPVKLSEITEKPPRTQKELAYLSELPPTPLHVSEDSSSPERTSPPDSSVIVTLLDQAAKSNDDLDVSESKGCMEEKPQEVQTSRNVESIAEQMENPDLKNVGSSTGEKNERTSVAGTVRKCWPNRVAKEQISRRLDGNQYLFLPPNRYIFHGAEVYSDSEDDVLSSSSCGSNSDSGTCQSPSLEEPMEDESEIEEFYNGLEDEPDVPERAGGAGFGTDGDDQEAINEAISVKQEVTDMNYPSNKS
The data set is described as follows: Inhibition of human recombinant SIRT1 assessed as reduction in NAD+-dependent deacetylase activity using Arg-His-Lys-Lys(epsilon-acetyl)-AMC substrate and NAD+ by fluorescence based assay.

Data set [6] is described as follows: Ionisation constant, pKa of the compound. It is filed as physicochemical.
Data set [7] addresses T1, NAD-dependent protein deacylase sirtuin-6. Briefly: Inhibition of SIRT6 in human BxPC3 cells assessed as reduction in TNFalpha production at 100 uM incubated for 18 hrs by ELISA method. It is filed as cell-based. A general note: ELISA stands for enzyme-linked immunosorbent assay.
The nature of data set [8]: Partition coefficient, log P of the compound. Conditions: octanol/water. The class given is physicochemical.
Data set [9] is described as follows: Stability in mouse plasma assessed as half life at 1 uM at 37 degC measured after 4 hrs. It is filed as ADME, cell-free.
The target of data set [10] is T3, NAD-dependent protein deacetylase sirtuin-2 (Homo sapiens, UniProt Q8IXJ6).
T3 sequence (Q8IXJ6 whole entry): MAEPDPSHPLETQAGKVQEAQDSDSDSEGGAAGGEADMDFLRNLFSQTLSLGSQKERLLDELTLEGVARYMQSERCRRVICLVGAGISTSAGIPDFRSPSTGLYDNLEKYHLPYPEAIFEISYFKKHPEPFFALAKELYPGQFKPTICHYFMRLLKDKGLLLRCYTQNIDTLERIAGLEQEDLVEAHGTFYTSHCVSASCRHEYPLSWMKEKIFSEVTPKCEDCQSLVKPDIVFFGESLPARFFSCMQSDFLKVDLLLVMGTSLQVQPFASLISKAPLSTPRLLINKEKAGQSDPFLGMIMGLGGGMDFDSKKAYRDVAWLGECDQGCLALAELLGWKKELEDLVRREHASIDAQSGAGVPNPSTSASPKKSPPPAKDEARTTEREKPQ
Briefly: Inhibition of human recombinant SIRT2 assessed as reduction in NAD+-dependent deacetylase activity using Arg-His-Lys-Lys(epsilon-acetyl)-AMC substrate and NAD+ by fluorescence based assay.

The species entered for data set [11] is Homo sapiens. Briefly: Selectivity index, ratio of IC50 for human recombinant SIRT2 to IC50 for human recombinant SIRT6.
Data set [12] can be described thus: Fraction unbound in human plasma at 1 ug/ml by rapid equilibrium dialysis. It is filed as ADME, cell-free. (In equilibrium dialysis free small molecules cross a membrane that holds back macromolecules.)
For data set [13], the species on record is Homo sapiens. The data set is described as follows: Selectivity index, ratio of IC50 for human recombinant SIRT1 to IC50 for human recombinant SIRT6.
Data set [14] is described as follows: Intrinsic aqueous solubility in 23% Kleptose HPB. It is filed as physicochemical.
The nature of data set [15]: Intrinsic aqueous solubility in surfactant in 9% TPGS. Conditions: 9% TPGS surfactant solution. The class given is physicochemical.
A short description of data set [16]: Intrinsic aqueous solubility in all polymers solutions. It is filed as physicochemical.
In data set [17] the target is T1, NAD-dependent protein deacylase sirtuin-6. The data set is described as follows: Inhibition of SIRT6 in human BxPC3 cells assessed as increase in 2-NBDG uptake at 100 uM incubated for 18 hrs by glucose uptake assay. The class given is cell-based.
Data set [18] in a line: Fraction unbound in mouse plasma at 10 ug/ml by rapid equilibrium dialysis. The class given is ADME, cell-free.
Data set [19] addresses T1, NAD-dependent protein deacylase sirtuin-6. Briefly: Inhibition of SIRT6 in human BxPC3 cells assessed as increase in H3K9 acetylation by immunoblotting relative to untreated control. It is filed as cell-based. The arrangement: concentration or dose not given beside the values. A general note: Immunoblotting shows a protein as a band on a membrane.
Data set [20] can be described thus: Fraction unbound in mouse plasma at 1 ug/ml by rapid equilibrium dialysis. The class given is ADME, cell-free.
Data set [21] relates to BXPC-3. The data set is described as follows: Toxicity in human BxPC3 cells assessed as reduction in cell viability at 30 uM incubated for 72 hrs by Cell-titer96 aqueous one assay. The class given is cell-based. The following applies: bxpc-3, 72 h.
The target in data set [22] is T1, NAD-dependent protein deacylase sirtuin-6. Briefly: Inhibition of SIRT6 in human PBMC cells assessed as reduction in PHA-induced cell proliferation at 200 uM incubated for 120 hrs by ATPlite assay. It is filed as cell-based.
Data set [23] shares this target. Briefly: Competitive inhibition of human recombinant SIRT6 assessed as reduction in NAD+-dependent deacetylase activity at 50 uM using fixed Arg-His-Lys-Lys(epsilon-acetyl)-AMC substrate and varying NAD+ by fluorescence based assay based double-reciprocal plot.
Data set [24] has the same target. Briefly: Inhibition of SIRT6 in human PBMC cells assessed as increase in H3K56 acetylation at 200 uM incubated for 24 hrs by immunoblotting relative to untreated control. It is filed as cell-based.
For data set [25] the target is unchanged. Briefly: Competitive inhibition of human recombinant SIRT6 assessed as reduction in NAD+-dependent deacetylase activity at 50 uM using varying Arg-His-Lys-Lys(epsilon-acetyl)-AMC substrate and fixed NAD+ by fluorescence based assay based double-reciprocal plot.
The target is the same in data set [26]. Briefly: Inhibition of SIRT6 in human PBMC cells assessed as reduction in staphylococcal enterotoxin B-induced cell proliferation by measuring CFSE signal level at 200 uM incubated for 120 hrs by CFSE staining based flow FACS assay (reference value: 65%). Further details: scale not given: the % may be the effect or the level left.
Data set [27] has the same target. Briefly: Inhibition of SIRT6 in human PBMC cells assessed as reduction in staphylococcal enterotoxin B-induced cell proliferation at 200 uM incubated for 120 hrs by ATPlite assay. The class given is cell-based.
For data set [28] the target is unchanged. Briefly: Inhibition of SIRT6 in human BxPC3 cells assessed as potentiation of gemcitabine-induced cytotoxicity at 30 uM incubated for 72 hrs by Cell-titer96 aqueous one assay. It is filed as cell-based.
Data set [29] has the same target. Briefly: Inhibition of SIRT6 in human PBMC cells assessed as increase in H3K9 acetylation at 200 uM incubated for 24 hrs by immunoblotting relative to untreated control. The class given is cell-based.
For data set [30] the target is unchanged. The data set is described as follows: Inhibition of SIRT6 in human PBMC cells assessed as reduction in PHA-induced cell proliferation by measuring CFSE signal level at 200 uM incubated for 120 hrs by CFSE staining based flow FACS assay (reference value: 66%). The arrangement: scale not given: the % may be the effect or the level left.

T1 sequence (Q8N6T7 whole entry): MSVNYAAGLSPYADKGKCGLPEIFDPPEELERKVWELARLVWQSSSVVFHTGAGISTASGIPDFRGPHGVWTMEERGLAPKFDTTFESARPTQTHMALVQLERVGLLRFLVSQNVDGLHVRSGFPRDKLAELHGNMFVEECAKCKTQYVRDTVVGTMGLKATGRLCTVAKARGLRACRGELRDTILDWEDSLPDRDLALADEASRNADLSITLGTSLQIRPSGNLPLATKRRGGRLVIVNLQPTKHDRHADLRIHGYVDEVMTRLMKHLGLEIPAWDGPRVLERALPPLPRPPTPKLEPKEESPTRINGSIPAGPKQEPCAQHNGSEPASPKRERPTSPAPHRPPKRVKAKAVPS

Regarding `Cc1cc(O)c(C(=O)O)cc1S(=O)(=O)Nc1ccc(NC(=O)NCC2CCCO2)cc1` (stereo not given), the inhibition (commonly the percentage by which the read-out fell short of the control) in data set [1] turned out to be 17%.
Same read-out and setting: for `CCC(CC)C(=O)Nc1cccc(C(=O)Nc2cccc(C(=O)O)c2)c1` the value was 54%; for `O=C(Cc1cccs1)Nc1cccc(C(=O)Nc2cccc(C(=O)O)c2)c1`, “inactive”.
On to `O=C(Nc1ccc(O)cc1C(=O)O)c1ccc(N2C(=O)c3ccccc3C2=O)cc1`, for which the fraction unbound (in general, free concentration divided by total concentration) at 10 ug/ml in [2] was less than 0.001; in data set [18] it was less than 0.01. Besides, the results for the IC50 in data set [3], in data set [5] and in [10] were 20 µM, 424 µM and 333 µM, respectively. Further, the solubility (commonly how much of the substance goes into solution per volume) was found to be 70 µg/mL (≈ 174 µM) in data set [4], 50 µg/mL (≈ 124 µM) in data set [14], 50 µg/mL (≈ 124 µM) in [15] and 5 µg/mL (≈ 12.4 µM) in data set [16]. In addition, in [6], the pKa (in general, the negative logarithm of the acid dissociation constant) worked out at 3.22. For the same compound, the inhibition in [7] came to 13%; in data set [1], 100%. Also, the log partition coefficient (logP) (usually the decadic logarithm of the partition coefficient of the neutral form, usually between octanol and water) in data set [8] amounted to 3.6. For the same compound, in data set [9], the half-life – broadly, how long it takes for the measured level to halve – at 1 µM is 7.7 h. In addition, the Ratio IC50 is 16.6 in data set [11] and 21.2 in data set [13]. The fraction unbound at 1 ug/ml is less than 0.001 in [12] and less than 0.01 in [20]. Besides, the fold change (FC) came out at 1.1 in data set [17] and 0.9 in data set [19].
As for `O=C(O)c1cccc(NC(=O)c2cccc(NC(=O)C3CCCO3)c2)c1` (stereo not given), the inhibition result in data set [1] was “inactive”.
The same measure, in the same setting: next, `CCC(=O)Nc1ccc(C(=O)Nc2ccc(C(=O)O)c(O)c2)cc1`: 70%.
On the same count and under the same terms, next, `O=C(Nc1ccc(C(=O)O)c(O)c1)c1cccc(N2C(=O)CCS2(=O)=O)c1`: 44%.
In the case of `O=C(Nc1ccc(C(=O)O)c(O)c1)c1ccc(NC(=O)c2ccco2)cc1`, the results for the Activity result in [21], in data set [26] and in data set [30] were “Non-Toxic”, 27% and 29%, respectively. The IC50 (as a rule, the concentration at which inhibition is half-maximal) in data set [5] was 599 µM; in [10], 482 µM. Also, the figures for the inhibition in data set [7] and in [1] were 80% and 100%, respectively. Further, the inhibition entry in [22], in data set [23], in data set [24], in [25], in [27] and in [28] was “Active” in each case. Further, the inhibition result in data set [29] was “Active”. Moreover, the fold change (FC) is 1.7 in data set [17] and 2.5 in data set [19].
For `O=C(O)c1cc(NC(=O)c2cccc(N3C(=O)CCC3=O)c2)cc(C(=O)O)c1`, the inhibition in data set [1] is 68%.
The same measure, in the same setting: for `CC(=O)Nc1ccc(NS(=O)(=O)c2ccc(O)c(C(=O)O)c2)cc1` the value was “inactive”.
Still for that read-out and setting: for `O=C(Nc1ccc(O)c(C(=O)O)c1)c1cccc(N2C(=O)CCS2(=O)=O)c1` the value was 54%; for `O=C(Nc1ccc(O)c(C(=O)O)c1)c1ccc(NC(=O)C2CC2)cc1`, 50%.
Still for that read-out and setting: next, `O=C(Nc1ccc(C(=O)O)c(O)c1)c1ccc(N2C(=O)CCS2(=O)=O)cc1`: 100%; `CC(=O)Nc1cccc(NS(=O)(=O)c2cc(C(=O)O)c(O)cc2C)c1`: “inactive”; `O=C(Nc1ccc(C(=O)O)c(O)c1)c1cccc(NC(=O)c2ccco2)c1`: 62%.
In the case of `O=C(Nc1ccc(C(=O)O)c(O)c1)c1ccc(N2C(=O)c3ccccc3C2=O)cc1`, in [1], the inhibition stood at 17%.
With `O=C(Nc1ccc(O)c(C(=O)O)c1)c1cccc(NC(=O)c2ccco2)c1`, in data set [7], the inhibition was determined as 52%. Further, the results for the Ratio IC50 in data set [11] and in data set [13] were 8.44 and 17.7, respectively. The figures for the fold change (FC) in [17] and in data set [19] were 1.3 and 2.1, respectively.
For the compound `O=C(O)c1cccc(NC(=O)c2cccc(NC(=O)c3cccs3)c2)c1`, the inhibition in data set [1] was 39%.
The same measure, in the same setting: next, `O=C(Nc1ccc(O)c(C(=O)O)c1)c1ccc(N2C(=O)CCS2(=O)=O)cc1`: 89%.
On the same count and under the same terms, next, `O=C(O)c1cccc(NC(=O)c2cccc(N3C(=O)CCS3(=O)=O)c2)c1`: 5%; `Cc1c(NC(=O)c2cccc(NC(=O)c3ccco3)c2)cccc1C(=O)O`: 18%.
On the same count and under the same terms, next, `Cc1ccc(C(=O)O)cc1NC(=O)c1cccc(NC(=O)c2ccco2)c1`: 4%.
